In patent US12642270B2, “Substituted thiophene carboxamides, thiophene carboxylic acids and derivatives thereof” (Bayer Aktiengesellschaft, priority 2019, dated 2026):

Assay: Log P by HPLC on reversed phase columns (EEC directive 79/831 Annex V.A8)
Assay type: physicochemical
Settings: LogP method [a]; compounds of formula (I), Table 1.1
Method in brief: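 Values come from retention times calibrated against alkan-2-ones (3–16 carbons) by linear interpolation, using reversed-phase LC-UV per EEC directive 79/831 Annex V.A8. Acetonitrile gradient 10–95% with 0.1% formic acid [a], 0.001 M ammonium acetate [b] or 0.1% phosphoric acid [c]; several values within one method separated by "+".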

SMILES | LogP
CCOC(=O)C1(NC(=O)c2cc(C#N)c(Br)s2)CC1 [1.0401] | 2.30^[a]
COC(=O)C(NC(=O)c1cc(C#N)c(Br)s1)C1CC1 (centres unmarked) [1.0402] | 2.50^[a]
CCOC(=O)C(NC(=O)c1cc(C#N)c(Br)s1)C(C)C (centres unmarked) [1.0403] | 3.22^[a]
CCOC(=O)C(CCSC)NC(=O)c1cc(C#N)c(Br)s1 (centres unmarked) [1.0404] | 3.03^[a]
CCOC(=O)C(Cc1ccccc1)NC(=O)c1cc(C#N)c(Br)s1 (centres unmarked) [1.0405] | 3.48^[a]
COC(=O)CNC(=O)c1sc(Br)c(C#N)c1Br [1.0406] | 2.22^[a]
CCOC(=O)CNC(=O)c1sc(Br)c(C#N)c1Br [1.0407] | 2.61^[a]
CCOC(=O)C1(NC(=O)c2sc(Br)c(C#N)c2Br)CC1 [1.0408] | 2.71^[a]
COC(=O)C(NC(=O)c1sc(Br)c(C#N)c1Br)C1CC1 (centres unmarked) [1.0409] | 3.02^[a]
CCOC(=O)C(NC(=O)c1sc(Br)c(C#N)c1Br)C(C)C (centres unmarked) [1.0410] | 3.84^[a]
CCOC(=O)C(CCSC)NC(=O)c1sc(Br)c(C#N)c1Br (centres unmarked) [1.0411] | 3.55^[a]
CCOC(=O)C(Cc1ccccc1)NC(=O)c1sc(Br)c(C#N)c1Br (centres unmarked) [1.0412] | 4.08^[a]
COC(=O)C(C1CC1)N(O)C(=O)c1sc(Br)c(Br)c1F (centres unmarked) [1.0413] | 2.77^[a]
CCOC(=O)C1(NC(=O)c2sc(Cl)c(Cl)c2C(F)F)CC1 [1.0414] | 3.17^[a]
COC(=O)CNC(=O)c1sc(Cl)c(Cl)c1C(F)F [1.0415] | 2.61^[a]
CCOC(=O)CNC(=O)c1sc(Cl)c(Cl)c1C(F)F [1.0416] | 2.97^[a]
COC(=O)C(NC(=O)c1sc(Cl)c(Cl)c1C(F)F)C1CC1 (centres unmarked) [1.0417] | 3.33^[a]
CCOC(=O)C(NC(=O)c1sc(Cl)c(Cl)c1C(F)F)C(C)C (centres unmarked) [1.0418] | 4.13^[a]
CCOC(=O)C(CCSC)NC(=O)c1sc(Cl)c(Cl)c1C(F)F (centres unmarked) [1.0419] | 3.86^[a]
CCOC(=O)C(Cc1ccccc1)NC(=O)c1sc(Cl)c(Cl)c1C(F)F (centres unmarked) [1.0420] | 4.33^[a]

SMILES | LogP
N#CCNC(=O)c1sc(Br)c(Cl)c1F [1.0421] | 2.33^[a]
COC(=O)CNC(=O)c1sc(Br)c(Cl)c1F [1.0422] | 2.47^[a]
CCOC(=O)CNC(=O)c1sc(Br)c(Cl)c1F [1.0423] | 2.92^[a]
COC(=O)C1(NC(=O)c2sc(Br)c(Cl)c2F)CC1 [1.0424] | 2.72^[a]
CCOC(=O)C(C)NC(=O)c1sc(Br)c(Cl)c1F (centres unmarked) [1.0425] | 3.38^[a]
CCOC(=O)C1(NC(=O)c2sc(Br)c(Cl)c2F)CC1 [1.0426] | 3.09^[a]
COC(=O)C(NC(=O)c1sc(Br)c(Cl)c1F)C1CC1 (centres unmarked) [1.0427] | 3.38^[a]
CCOC(=O)C1(NC(=O)c2sc(Br)c(Cl)c2F)CCC1 [1.0428] | 3.73^[a]
CCOC(=O)C(NC(=O)c1sc(Br)c(Cl)c1F)C(C)C (centres unmarked) [1.0429] | 4.38^[a]
COC(=O)C(CC(F)F)NC(=O)c1sc(Br)c(Cl)c1F (centres unmarked) [1.0430] | 3.21^[a]
CCOC(=O)C(CC(C)C)NC(=O)c1sc(Br)c(Cl)c1F (centres unmarked) [1.0431] | 4.64^[a]
CCOC(=O)C(CCSC)NC(=O)c1sc(Br)c(Cl)c1F (centres unmarked) [1.0432] | 3.96^[a]
CCOC(=O)C(Cc1ccccc1)NC(=O)c1sc(Br)c(Cl)c1F (centres unmarked) [1.0433] | 4.48^[a]
COC(=O)C(CCSC)NC(=O)c1sc(Br)c(Br)c1F (centres unmarked) [1.0434] | 3.57^[a]
CCOC(=O)C(CC(C)C)NC(=O)c1cc(F)c(Br)s1 (centres unmarked) [1.0435] | 3.80^[a]
CCOC(=O)C(CC(C)C)NC(=O)c1cc(Br)c(Cl)s1 (centres unmarked) [1.0436] | 4.23^[a]
CCOC(=O)C(NC(=O)c1cc(Br)c(Cl)s1)C(C)C (centres unmarked) [1.0437] | 3.87^[a]
COC(=O)C(CC(F)F)NC(=O)c1cc(Br)c(Cl)s1 (centres unmarked) [1.0438] | 3.07^[a]
CCOC(=O)C1(NC(=O)c2cc(Br)c(Cl)s2)CCC1 [1.0439] | 3.44^[a]
COC(=O)C(CC(F)F)NC(=O)c1sc(Br)c(Br)c1F (centres unmarked) [1.0440] | 3.23^[a]

Now from value to molecule:

LogP | SMILES
3.85^[a] | CCOC(=O)C(NC(=O)c1cc(Cl)c(Br)s1)C(C)C (centres unmarked) [1.0441]
2.96^[a] | COC(=O)C(CC(F)F)NC(=O)c1cc(Cl)c(Br)s1 (centres unmarked) [1.0442]
4.01^[a] | CCOC(=O)C(Cc1ccccc1)NC(=O)c1cc(Cl)c(Br)s1 (centres unmarked) [1.0443]
4.19^[a] | CCOC(=O)C(CC(C)C)NC(=O)c1cc(Cl)c(Br)s1 (centres unmarked) [1.0444]
3.86^[a] | CCOC(=O)C1(CNC(=O)c2sc(Br)c(Br)c2F)CC1 [1.0445]
4.21^[a] | CCOC(=O)C1(NC(=O)c2sc(Br)c(Br)c2F)CCCC1 [1.0446]
2.77^[a] | COC(=O)C1(NC(=O)c2sc(Br)c(Br)c2F)CCOCC1 [1.0447]
3.14^[a] | COC(=O)CC(C)NC(=O)c1sc(Br)c(Br)c1F (centres unmarked) [1.0448]
2.97^[a] | CCOC(=O)CNC(=O)c1sc(Br)c(Br)c1F [1.0449]
3.11^[a] | CCOC(=O)CCNC(=O)c1sc(Br)c(Br)c1F [1.0450]
2.63^[a] | CCOC(=O)C(NC(=O)c1sc(Br)c(Br)c1F)C(C)C (centres unmarked) [1.0451]
3.29^[a] | CCOC(=O)C1(NC(=O)c2cc(Cl)c(Br)s2)CCC1 [1.0452]
2.80^[a] | CCOC(=O)CCNC(=O)c1cc(Br)c(Cl)s1 [1.0453]
2.80^[a] | CCOC(=O)C1(NC(=O)c2cc(Cl)c(Br)s2)CC1 [1.0454]
1.99^[a] | O=C(NC1(C(=O)O)CC1)c1cc(Cl)c(Br)s1 [1.0455]
2.47^[a] | CCOC(=O)CCNC(=O)c1cc(F)c(Br)s1 [1.0456]
2.63^[a] | CCOC(=O)CNC(=O)c1cc(Br)c(Cl)s1 [1.0457]
3.43^[a] | CCOC(=O)C1(NC(=O)c2cc(Br)c(Cl)s2)CC1 [1.0458]
2.98^[a] | CCOC(=O)C1(NC(=O)c2cc(F)c(Br)s2)CCC1 [1.0459]
2.51^[a] | CCOC(=O)C1(NC(=O)c2cc(F)c(Br)s2)CC1 [1.0460]
2.59^[a] | CCOC(=O)CNC(=O)c1cc(Cl)c(Br)s1 [1.0461]
2.77^[a] | CCOC(=O)CCNC(=O)c1cc(Cl)c(Br)s1 [1.0462]
2.80^[a] | CCOC(=O)C1(NC(=O)c2sc(C)c(Br)c2F)CC1 [1.0463]
2.33^[a] | CCOC(=O)CNC(=O)c1cc(C)c(Cl)s1 [1.0464]
2.49^[a] | CCOC(=O)CCNC(=O)c1cc(C)c(Cl)s1 [1.0465]
2.52^[a] | CCOC(=O)C1(NC(=O)c2cc(C)c(Cl)s2)CC1 [1.0466]
2.28^[a] | CCOC(=O)CNC(=O)c1cc(F)c(Br)s1 [1.0467]
2.98^[a] | CCOC(=O)C1(NC(=O)c2cc(I)c(I)s2)CC1 [1.0468]

LogP | SMILES
2.08^[a] | O=C(NC1(C(=O)O)CC1)c1cc(I)c(I)s1 [1.0469]
1.88^[a] | NC(=O)C1(NC(=O)C2(NC(=O)c3cc(I)c(I)s3)CC2)CC1 [1.0470]
1.87^[a] | O=C(O)CNC(=O)c1cc(I)c(I)s1 [1.0471]
4.06^[a] | COC(=O)C(Cc1ccccc1)NC(=O)c1sc(Br)c(Br)c1F (centres unmarked) [1.0472]
2.75^[a] | CSCCC(NC(=O)c1sc(Br)c(Br)c1F)C(=O)O (centres unmarked) [1.0473]
1.63^[a] | O=C(O)CNC(=O)CNC(=O)c1cc(I)c(I)s1 [1.0474]
1.87^[a] | NC(=O)C1(NC(=O)c2cc(I)c(I)s2)CC1 [1.0475]
2.59^[a] | CCOC(=O)C1(NC(=O)C2(NC(=O)c3cc(I)c(I)s3)CC2)CC1 [1.0476]
3.04^[a] | CSC(=O)C1(NC(=O)c2cc(I)c(I)s2)CC1 [1.0477]
1.53^[a] | O=C(NC1(C(=O)NC2(C(=O)O)CC2)CC1)c1cc(I)c(I)s1 [1.0478]
3.92^[a] | CCOC(=O)C1(NC(=S)c2cc(Cl)c(Br)s2)CC1 [1.0479]
3.39^[a] | CCSC(=O)C1(NC(=O)c2cc(I)c(I)s2)CC1 [1.0480]
2.78^[a] | CCOC(=O)CCNC(=O)c1sc(C)c(Br)c1F [1.0481]
3.91^[a] | CCOC(=O)C(C)NC(=O)c1sc(Cl)c(Br)c1Br (centres unmarked) [1.0482]
3.08^[a] | COC(=O)C1(NC(=O)c2sc(Cl)c(Br)c2Br)CC1 [1.0483]
4.59^[a] | CCOC(=O)CNC(=S)c1sc(Cl)c(Br)c1Cl [1.0484]
4.08^[a] | COC(=O)CNC(=S)c1sc(Cl)c(Br)c1Cl [1.0485]
2.95^[a] | O=C(NC1(C(=O)O)CCC1)c1sc(Cl)c(Br)c1Cl [1.0486]
1.98^[a] | O=C(NC1(C(=O)O)COC1)c1sc(Br)c(Br)c1F [1.0489]
2.92^[a] | O=C(NC1(C(=O)O)CCC1)c1sc(Br)c(Br)c1Cl [1.0490]
2.95^[a] | CCOC(=O)CN(O)C(=O)c1sc(Cl)c(Cl)c1Br [1.0491]
2.92^[a] | COC(=O)CNC(=O)c1sc(Br)c(Br)c1Cl [1.0492]
4.58^[a] | CCOC(=O)CNC(=S)c1sc(Br)c(Br)c1Cl [1.0493]
2.28^[a] | O=C(O)CNC(=O)c1sc(Br)c(Br)c1Cl [1.0494]
3.98^[a] | CCOC(=O)C(NC(=O)c1sc(Br)c(Br)c1F)C1CC1 (centres unmarked) [1.0495]
4.62^[a] | COC(=O)C(NC(=S)c1sc(Br)c(Br)c1F)C1CC1 (centres unmarked) [1.0496]
5.32^[a] | COC(=O)C(Cc1ccccc1)NC(=S)c1sc(Br)c(Br)c1F (centres unmarked) [1.0497]

Same assay, conditions: method marked [a]

LogP | SMILES
2.97^[a] | COC(=O)C(NC(=O)c1sc(Cl)c(C#N)c1Cl)C1CC1 (centres unmarked) [1.0395]
3.81^[a] | CCOC(=O)C(NC(=O)c1sc(Cl)c(C#N)c1Cl)C(C)C (centres unmarked) [1.0396]
3.52^[a] | CCOC(=O)C(CCSC)NC(=O)c1sc(Cl)c(C#N)c1Cl (centres unmarked) [1.0397]
4.05^[a] | CCOC(=O)C(Cc1ccccc1)NC(=O)c1sc(Cl)c(C#N)c1Cl (centres unmarked) [1.0398]
1.79^[a] | COC(=O)CNC(=O)c1cc(C#N)c(Br)s1 [1.0399]
2.11^[a] | CCOC(=O)CNC(=O)c1cc(C#N)c(Br)s1 [1.0400]
